{
  "source": "patent US20230158152A1",
  "about": "“PROTEOLYSIS REGULATOR AND METHOD FOR USING SAME” (MEDSHINE DISCOVERY INC., priority 2020, published 2023)",
  "key": {"[1]": {"assay": "Pharmacokinetics of the compound in mice", "format": "in vivo, C57BL/6 (C57) mice", "description": "In this study, C57BL male mice were selected as assay animals, and the LC/MS/MS method was used to quantitatively determine the compound concentration at different time points in the plasma of mice administered intravenously or orally with the assay compound, so as to evaluate pharmacokinetic profile of the assay compound in mice.\nC57BL/6 (C57) mice (male, 17-20 g, 7-10 weeks old, from Shanghai lingchang).\nA clear solution of the assay compound was intravenously injected into C57 mice via tail (fasted overnight) or administered to C57 mice by gavage (fasted overnight). 200 μL of blood was collected from the saphenous vein at 0.0833, 0.25, 0.5, 1, 2, 4, 8 and 24 h after intravenous administration, and placed in an anticoagulant tube (Jiangsu Kangjian Medical Co., Ltd.) supplemented with EDTA-K2. The mixture was thoroughly vortexed at 4° C. and centrifuged at 3200 g for 10 min. Blood was collected from the saphenous vein at 0.25, 0.5, 1, 2, 4, 6, 8 and 24 h after oral gavage administration, and placed in an anticoagulant tube (Jiangsu Kangjian Medical Co., Ltd.) supplemented with EDTA-K2. The mixture was thoroughly vortexed and centrifuged at 3200 g for 10 min. Blood drug concentration was determined by LC-MS/MS, and relevant pharmacokinetic parameters were calculated with the non-compartmental model Linear/log trapezoidal method using Phoenix WinNonlin 6.3 pharmacokinetic software."}, "[2]": {"tested_on": "human lung cancer cell NCI-H2228", "assay": "Anti-proliferative effect in human lung cancer cell NCI-H2228 (CellTiter-Glo)", "format": "cell-based", "settings": "NCI-H2228, 72 h, cell proliferation, cultured for 3 days", "description": "In this assay, the inhibitory effect of assay compounds on cell proliferation was assayed in human lung cancer cell NCI-H2228.\n(1) Promega CellTiter-Glo luminescent cell viability assay kit (Promega-G7573). (2) 2104 EnVision® plate reader, PerkinElmer.\nThe tumor cell line was cultured in a 37° C., 5% CO2 incubator according to the above-mentioned culture conditions. Cells were passaged periodically, and cells in logarithmic growth phase were used for plating.\n(1). Cells were stained with trypan blue and viable cells were counted; (2). The cell concentration was adjusted to an appropriate concentration;\n(3). 90 μL of cell suspension was added to each well of the culture plate as shown in the table above, and cell-free culture medium was added to the blank control well; (4). The plate was incubated in an incubator at 37° C., 5% CO2, and 100% relative humidity overnight.\nPreparation of a mother solution storage plate with 400 times the starting compound concentration: the compounds were diluted serially with DMSO from the highest concentration to the lowest concentration. The plate was prepared freshly every time it was used.\n(1). 78 μL of cell culture medium was added to a 96-well plate with a V-shaped bottom. […]\n(1). […] The culture plate was left at room temperature for 10 minutes to stabilize the luminescence signal; (9). The luminescent signal was detected on a 2104 EnVision plate reader. […]"}, "[3]": {"tested_on": "human lung cancer NCI-H2228 cells subcutaneous xenograft tumor", "assay": "In vivo pharmacodynamic study in subcutaneous xenograft tumor NOD SCID mouse model of human lung cancer NCI-H2228 cells", "set-up": "species or system NOD SCID mice", "settings": "50 mg/kg subcutaneous injection once a day", "description": "Human lung cancer cell NCI-H2228 (ATCC® CRL-5935™) was cultured in vitro in an adherent monolayer in RPMI 1640 medium supplemented with 10% fetal bovine serum, 100 U/mL penicillin and 100 μg/mL streptomycin in an incubator at 37° C. and 5% CO2. Cells were passaged by routine digestion with trypsin-EDTA twice a week. When the cell saturation was 80%-90% and the number met the requirement, the cells are collected, counted, and inoculated.\nNOD SCID mice, female, 6-8 weeks old, weighing 18-22 grams.\n0.2 mL (10×10^6 cells) of NCI-H2228 cells (with matrigel, v/v 1:1) were subcutaneously inoculated into the right back of each mouse. The administration by group was started when the average tumor volume reached 171 mm^3. One administration cycle comprised seven days, with administration once a day. The assay compounds were administered by subcutaneous injection for a total of four cycles. The subcutaneous injection doses of the assay compounds WX001 and WX002 were both 50 mg/kg. Tumor diameter was measured twice a week with a vernier caliper, and tumor volume was measured in cubic millimeters and calculated by the following formula: V=0.5a×b^2, where a and b are the long and short diameters of the tumor, respectively. The tumor-inhibitory efficacy of the assay compounds was evaluated by using TGI (%). TGI (%) reflects a tumor growth inhibition rate. TGI (%)=[1−(Average tumor volume at the end of administration of a treatment group−Average tumor volume at the beginning of administration of the treatment group)/(Average tumor volume at the end of treatment of a vehicle control group−Average tumor volume at the beginning of treatment of the vehicle control group)]×100%."}, "[4]": {"settings": "male, C57BL/6, mouse, plasma, intravenous injection (2 mg/kg)"}},
  "data": [
    {"smiles": "Cc1cc(Nc2ncc(Cl)c(Nc3ccccc3S(=O)(=O)C(C)C)n2)c(OC(C)C)cc1C1CCN(CC(=O)NCCOc2ccc3occ(C4CCC(=O)NC4=O)c3c2)CC1", "note": "(centres unmarked) [WX001]", "values": [
      {"measurement": "Area under the curve (0-inf)", "setting": "[1]; intravenous injection (2 mg/kg)", "result": 3.69, "unit": "µM·h"},
      {"measurement": "clearance", "setting": "[1]; [4]", "result": 10.3, "unit": "mL/min/kg"},
      {"measurement": "half-life", "setting": "[1]; [4]", "result": 1.74, "unit": "h"},
      {"measurement": "bioavailability", "setting": "[1]; male, C57BL/6, mouse, plasma, oral (10 mg/kg), read-out: Bioavailability F", "result": 11.7, "unit": "%"},
      {"measurement": "Area under the curve (0-inf)", "setting": "[1]; oral (10 mg/kg)", "result": 2.33, "unit": "µM·h"},
      {"measurement": "Peak concentration", "setting": "[1]; oral (10 mg/kg)", "result": 0.68, "unit": "µM"},
      {"measurement": "Time to peak", "setting": "[1]; oral (10 mg/kg)", "result": 0.75, "unit": "h"},
      {"measurement": "IC50", "setting": "[2]", "result": 0.091, "unit": "µM"},
      {"measurement": "Tumor volume (Day 1)", "setting": "[3]; Day 1", "result": "172 ± 12", "unit": "mm^3"},
      {"measurement": "TGI (Day 28)", "setting": "[3]; Day 28", "result": 111.22, "unit": "%"},
      {"measurement": "Tumor volume (Day 28)", "setting": "[3]; Day 28", "result": "102 ± 5", "unit": "mm^3"}
    ]}
  ]
}
